Assay results from ChEMBL document CHEMBL1828586 (J Med Chem, 2011).

Key:
LNCaP = experiment: Anticancer activity against human LNCAP cells after 96 hrs by SRB assay; format: functional, cell-based
PC-3 = experiment: Anticancer activity against human PC3 cells after 96 hrs by SRB assay; format: functional, cell-based; conditions: PC-3, 96 h
[1] = Anticancer activity against mouse B16-F1 cells after 96 hrs by SRB assay; format: functional, cell-based; conditions: B16-F1, 96 h
PPC-1 = experiment: Anticancer activity against human PPC1 cells after 96 hrs by SRB assay; format: functional, cell-based; conditions: PPC-1, 96 h
A-375 = experiment: Anticancer activity against human A375 cells after 96 hrs by SRB assay; format: functional, cell-based; conditions: A-375, 96 h
DU-145 = experiment: Anticancer activity against human DU145 cells after 96 hrs by SRB assay; format: functional, cell-based; conditions: DU-145, 96 h
[2] = Anticancer activity against human WM164 cells after 96 hrs by SRB assay; format: functional, cell-based; conditions: WM164, 96 h
[3] = AUC in Sprague-Dawley rat at 10 mg/kg, po by LC-MS/MS analysis; format: ADME, organism-based; parameters: dose 10 mg/kg, route oral; conditions: plasma
[4] = AUC in Sprague-Dawley rat at 5 mg/kg, iv by LC-MS/MS analysis; format: ADME, organism-based; parameters: dose 5 mg/kg, route intravenous; conditions: plasma
OVCAR-8 [5] = experiment: Anticancer activity against human OVCAR8 cells after 96 hrs by SRB assay; format: functional, cell-based; conditions: OVCAR-8, 96 h
NCI/ADR-RES = experiment: Anticancer activity against P-gp overexpressing human NCI/ADR-RES cells after 96 hrs by SRB assay; format: functional, cell-based
OVCAR-8 [6] = experiment: Resistance factor, ratio of IC50 for human NCI-ADR-RES cells to IC50 for drug-sensitive human OVCAR8 cells; format: functional
Liver microsomes = experiment: Half life in human liver microsomes; format: ADME, Microsome
[7] = AUC in Sprague-Dawley rat at […], iv by LC-MS/MS analysis; format: ADME, organism-based; parameters: dose 2.5 mg/kg, route intravenous; conditions: plasma

Row | IC50 (LNCaP) [nM] | IC50 (PC-3) [nM] | IC50 (A-375) [nM] | IC50 (DU-145) [nM] | SMILES | IC50 [1] [nM] | IC50 (PPC-1) [nM] | IC50 [2] [nM] | AUC [3] [ng·h/mL] | AUC [4] [ng·h/mL] | IC50 (OVCAR-8 [5]) [nM] | IC50 (NCI/ADR-RES) [nM] | Ratio IC50 (OVCAR-8 [6]) | t1/2 (Liver microsomes) [min] | AUC [7] [ng·h/mL]
1 | 2300 | > 10000 | 1600 | > 10000 | COc1cc(Sc2cccc(-c3ccccc3)c2)cc(OC)c1OC | 2400 | 2300 | 2000 |  |  |  |  |  |  | 
2 |  |  |  |  | COc1cc(C(=O)c2csc(Nc3ccc(F)cc3)n2)cc(OC)c1OC.Cl |  |  |  | 2670 | 6350 |  |  |  |  | 
3 |  | 12 | 15 | 26 | COc1cc(C(=O)c2csc(-c3ccccc3)c2)cc(OC)c1OC | 72 | 15 |  |  |  |  |  |  |  | 
4 | > 10000 | > 10000 | > 10000 | > 10000 | COc1cc(NS(=O)(=O)c2cccc(-c3ccccc3)c2)cc(OC)c1OC | > 10000 | > 10000 | > 10000 |  |  |  |  |  |  | 
5 | > 20000 | > 20000 | > 30000 | > 20000 | COc1cc(C(=O)N2CCC(c3ccccc3)CC2)cc(OC)c1OC | > 30000 | > 20000 |  |  |  |  |  |  |  | 
6 |  |  | 500 |  | COc1cc(C(=O)[C@@H]2COC(c3ccccc3)=N2)cc(OC)c1OC | 6500 | 1100 |  |  |  |  |  |  |  | 
7 |  |  |  |  | COc1cc(C(=O)c2csc(Nc3ccccc3)n2)cc(OC)c1OC.Cl |  |  |  | 1080 | 4930 |  |  |  |  | 
8 | 1300 | 1040 | 600 |  | COc1cc(/C(=N\N)c2csc(-c3ccccc3)n2)cc(OC)c1OC | 1800 | 966 |  |  |  |  |  |  |  | 
9 | 169 | 120 | 200 | 103 | COc1cc(/C(=N/O)c2csc(-c3ccccc3)n2)cc(OC)c1OC | 300 | 144 |  |  |  |  |  |  |  | 
10 | 52 | 124 | 87 | 171 | COc1cc(C(=O)c2cccc(-c3ccccc3)c2)cc(OC)c1OC | 500 | 80 |  |  |  |  |  |  |  | 
11 | > 10000 | > 10000 | > 10000 | > 10000 | COc1cc(S(=O)(=O)c2cccc(-c3ccccc3)c2)cc(OC)c1OC | > 10000 | > 10000 | > 10000 |  |  |  |  |  |  | 
12 | 101 | 101 | 100 | 145 | COc1cc(C(=O)c2cc(-c3ccccc3)n[nH]2)cc(OC)c1OC | 245 | 84 |  |  |  |  |  |  |  | 
13 | > 10000 | > 10000 | > 30000 | > 10000 | COc1cc(C(=O)Nc2csc(-c3ccccc3)n2)cc(OC)c1OC | > 30000 | > 10000 |  |  |  |  |  |  |  | 
14 | 1020 | > 10000 | > 10000 | > 10000 | COc1cc(C(=O)c2csc(-c3ccc(CN(C)C)cc3)n2)cc(OC)c1OC | > 10000 | > 10000 |  |  |  |  |  |  |  | 
15 | > 10000 | > 10000 | 13600 | > 10000 | COc1cc(C(=O)c2cnc(-c3ccccc3)s2)cc(OC)c1OC | 12500 | > 10000 |  |  |  |  |  |  |  | 
16 | 103 | 87 | 100 | 116 | COc1cc(C(=O)c2csc(-c3ccc(O)cc3)n2)cc(OC)c1OC | 110 | 76 |  |  |  |  |  |  |  | 
17 | 331 | 292 | 300 | 292 | COc1cc(C(=O)c2coc(-c3ccccc3)n2)cc(OC)c1OC | 600 | 343 |  |  |  |  |  |  |  | 

Row | IC50 (LNCaP) [nM] | IC50 (PC-3) [nM] | IC50 (A-375) [nM] | IC50 (DU-145) [nM] | SMILES | IC50 [1] [nM] | IC50 (PPC-1) [nM] | IC50 [2] [nM] | AUC [3] [ng·h/mL] | AUC [4] [ng·h/mL] | IC50 (OVCAR-8 [5]) [nM] | IC50 (NCI/ADR-RES) [nM] | Ratio IC50 (OVCAR-8 [6]) | t1/2 (Liver microsomes) [min] | AUC [7] [ng·h/mL]
18 | 2600 | 3100 | 7900 | 4300 | COc1cc(C(=O)c2csc(-c3ccc(CNC(=O)OC(C)(C)C)cc3)n2)cc(OC)c1OC | 2900 | 2700 |  |  |  |  |  |  |  | 
19 | > 10000 | > 10000 | > 30000 | > 10000 | COc1cc(C(O)c2csc(-c3ccccc3)n2)cc(OC)c1OC (stereo not given) | > 30000 | > 10000 |  |  |  |  |  |  |  | 
20 | > 10000 | > 10000 | > 30000 | > 10000 | COc1cc(C(=O)c2cc(-c3ccccc3)on2)cc(OC)c1OC | > 30000 | > 10000 |  |  |  |  |  |  |  | 
21 | 7000 | 8300 | > 30000 | 6900 | COc1cc(C(=O)c2cc(-c3ccccc3)ncn2)cc(OC)c1OC | > 30000 | 3700 |  |  |  |  |  |  |  | 
22 | > 10000 | > 10000 | > 30000 | > 10000 | COc1cc(NC(=O)c2csc(-c3ccccc3)n2)cc(OC)c1OC | > 30000 | > 10000 |  |  |  |  |  |  |  | 
23 | 1390 | 2470 | 1900 | 2650 | COc1cc(C(=C(C)C)c2csc(-c3ccccc3)n2)cc(OC)c1OC | 3800 | 2040 | 3700 |  |  |  |  |  |  | 
24 | 23 | 21 | 27 | 35 | COc1cc(C(=O)c2ccc(-c3ccccc3)o2)cc(OC)c1OC | 151 | 20 |  |  |  |  |  |  |  | 
25 |  |  |  |  | COc1cc(C(=O)c2csc(-c3ccccc3)n2)cc(OC)c1OC | 55 |  | 64 | 617 |  | 35 |  |  |  | 4650
26 | 1800 | 1120 | 900 | 1210 | COc1cc(/C(=N/N)c2csc(-c3ccccc3)n2)cc(OC)c1OC | 2000 | 872 |  |  |  |  |  |  |  | 
27 | > 10000 | > 10000 | > 10000 | > 10000 | COc1cc([S+]([O-])c2cccc(-c3ccccc3)c2)cc(OC)c1OC (stereo not given) | > 10000 | > 10000 | > 10000 |  |  |  |  |  |  | 
28 | > 10000 | > 10000 | 7800 | > 10000 | COc1cc(/C(=N\O)c2csc(-c3ccccc3)n2)cc(OC)c1OC | 11400 | > 10000 |  |  |  |  |  |  |  | 
29 | > 10000 | > 10000 | > 10000 | > 10000 | COc1cc(-c2csc(-c3ccccc3)n2)cc(OC)c1OC | > 10000 | > 10000 | > 10000 |  |  |  |  |  |  | 
30 |  |  |  |  | COc1cc(C(=O)c2csc(Nc3ccc(C)cc3)n2)cc(OC)c1OC [listing 1 of 2 here] |  |  |  |  |  | 28 | 21 | 0.8 |  | 
31 |  |  | > 10000 | > 10000 | CO/N=C(\c1cc(OC)c(OC)c(OC)c1)c1csc(-c2ccccc2)n1 | > 10000 | > 10000 | > 10000 |  |  |  |  |  |  | 
32 | > 10000 | > 10000 | 2900 | > 10000 | CO/N=C(/c1cc(OC)c(OC)c(OC)c1)c1csc(-c2ccccc2)n1 | 3800 |  | 3400 |  |  |  |  |  |  | 
33 |  |  |  |  | CC(=O)O[C@H]1C(=O)[C@@]2(C)[C@H]([C@H](OC(=O)c3ccccc3)[C@]3(O)C[C@H](OC(=O)[C@H](O)[C@@H](NC(=O)c4ccccc4)c4ccccc4)C(C)=C1C3(C)C)[C@]1(OC(C)=O)CO[C@@H]1C[C@@H]2O [PACLITAXEL] |  |  |  |  |  | 4.7 |  |  |  | 

Row | SMILES | IC50 (LNCaP) [nM] | IC50 (PC-3) [nM] | IC50 (A-375) [nM] | IC50 (DU-145) [nM] | IC50 [1] [nM] | IC50 (PPC-1) [nM] | IC50 [2] [nM] | AUC [3] [ng·h/mL] | AUC [4] [ng·h/mL] | IC50 (OVCAR-8 [5]) [nM] | IC50 (NCI/ADR-RES) [nM] | Ratio IC50 (OVCAR-8 [6]) | t1/2 (Liver microsomes) [min] | AUC [7] [ng·h/mL]
34 | COc1cc(C(=O)c2csc(-c3cc4ccccc4[nH]3)n2)cc(OC)c1OC | 28 | 24 | 19 | 32 | 43 | 28 |  |  |  |  |  |  |  | 
35 | CNCc1ccc(-c2nc(C(=O)c3cc(OC)c(OC)c(OC)c3)cs2)cc1 | 1140 | > 10000 | > 10000 | 10000 | > 10000 | 10000 |  |  |  |  |  |  |  | 
36 | COc1cc(/C(=C/C#N)c2csc(-c3ccccc3)n2)cc(OC)c1OC | 580 | 890 | 4600 | 2280 | 5400 | 900 | 4900 |  |  |  |  |  |  | 
37 | COc1cc(C(=O)c2cccc(-c3ccccc3)n2)cc(OC)c1OC | 27 |  | 30 |  | 39 | 25 |  |  |  | 33 | 13 | 0.4 |  | 
38 | COc1cc(C(=O)[C@@H]2CSC(c3ccc(O[Si](C)(C)C(C)(C)C)cc3)=N2)cc(OC)c1OC | 549 | 183 | 700 | 434 | 500 | 246 |  |  |  |  |  |  |  | 
39 | COc1cc(/C(=N\C#N)c2csc(-c3ccccc3)n2)cc(OC)c1OC | 23 | 27 | 28 | 42 | 60 | 20 | 27 |  |  | 34 | 14 | 0.4 | < 5 | 
40 | COc1cc(C(=O)c2csc(Nc3ccc(F)cc3)n2)cc(OC)c1OC | 41 |  |  | 63 |  |  |  |  |  | 44 | 25 |  |  | 
41 | COc1cc(C(=O)c2csc(Nc3ccccc3)n2)cc(OC)c1OC | 51 | 57 |  | 70 | 65 | 54 |  |  |  | 46 | 27 | 0.6 |  | 
42 | COc1cc(/C(=C\C#N)c2csc(-c3ccccc3)n2)cc(OC)c1OC | 1990 | 10000 | 1200 | 10000 | 1200 | 10000 | 1000 |  |  |  |  |  |  | 
43 | COc1cc(C(=O)c2csc(-c3ccc4[nH]ccc4c3)n2)cc(OC)c1OC |  | 7 | 8 | 13 | 25 | 8 |  |  |  | 10 | 4 | 0.4 |  | 
44 | COc1cc(C(=O)c2csc(Nc3ccc(C)cc3)n2)cc(OC)c1OC [listing 2 of 2 here] | 35 | 38 |  | 35 |  | 36 |  |  |  |  |  |  |  | 
